# Laboratory results as given in PubChem BioAssay AID2060884 (Molecular Pharmacology Branch, DTP, NCI, 2025).
# pIC50: −log10 of the molar value.
# Tested on: NCI-H929 complex spheroids, viability % test/control
# Assay: Anticancer human tumor NCI-H929 cell line growth inhibition [RAS];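 further: compound exposure lasted seven days before viability was read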
# Settings: for pIC50: curve of first compound; for viability, T/C: stronger effect = lower value
# Text: RAS pathway inhibitors in Combinations in Complex Spheroids
# A high-throughput screen of multi-cell type tumor spheroids was designed to identify active combinations of RAS pathway inhibitors and targeted small molecules. Complex spheroids include a stromal component modeled by human endothelial cells (HUVEC) and fibroblasts modeled by human mesenchymal stem cells (MSCs). The concentration ranges selected for each drug and investigational agent were based upon clinically achievable concentrations if the clinical Cmax of the agent was known.
# Compounds. The drugs and investigational agents: abemaciclib (NSC768073), cobimetinib (NSC768068), divarasib (GDC6063, NSC841802), docetaxel (NSC628503), GDC-1971 (RLY-1971, NSC841576), gemcitabine (NSC613327), inavolisib (NSC800729), ipatasertib (NSC767898), KB-0742 (NSC834161), MRTX-1133 (NSC836407), osimertinib (NSC779217), RMC-4630 (NSC839698), RMC-6236 (NSC851965), RMC-6291 (NSC852671), Ro-3306 (NSC812927), sapanisertib (NSC764658), SN-38 (NSC673596), staurosporine (NSC755774), SY5609 (NSC837396), and tovorafenib (DAY101, NSC766906), were obtained from the National Cancer Institute (NCI) Developmental Therapeutics Program Chemical Repository. The FDA-approved anticancer drug set is available from the NCI Developmental Therapeutics Program. […] The stock solutions were prepared in dimethyl sulfoxide (DMSO, Sigma-Aldrich, St. Louis, MO, cat. D2650) at 800-fold the tested concentration and stored at -70 degrees C prior to their use. All drugs and investigational agents were tested over a range starting from a high concentration at or near the clinical Cmax and decreasing in half-log increments. If the clinical Cmax for an agent had not been determined, the highest concentration tested was 10 microM.
# Cell Culture. All cells were maintained in an incubator at 37 degrees C and 5% CO2 with 95% humidity. The PDC lines were cultured according to standard operating procedures established by the NCI PDMR. All PDCs were thawed and cultured in Matrigel-coated flasks prepared with a working solution of 1X Ham's F-12 nutrient mix, without supplementation (Invitrogen, Waltham, MA, cat. 11765054), 100 U/mL penicillin-streptomycin (Invitrogen, cat. 15140122), and 2.5% Matrigel (Corning Inc., Corning, NY, cat. 354248) for the first three passages. The 362531-283-R-J2-PDC and 782815-120-R-J1-PDC lines were cultured in 6C/Colon 1B media, which includes advanced DMEM/F-12 (Thermo Fisher Scientific, cat. 12634028), 10 mM HEPES (Thermo Fisher Scientific, cat. 15630080), 1X GlutaMAX supplement (Thermo Fisher Scientific, cat. 35050061), 0.1 mg/mL primocin (InvivoGen, San Diego, CA, cat. ant-pm-2), 10% defined fetal bovine serum, heat inactivated (HyClone Laboratories Inc., Logan, UT, cat. SH30070.03HI), 50% L-WRN conditioned media (ATCC, cat. CRL-3276), 1.25 mM N-Acetyl-L-cysteine (Sigma-Aldrich, cat. A9165), 10 mM nicotinamide (Sigma-Aldrich, cat. N0636), 1X B-27 supplement (Thermo Fisher Scientific, cat. 17504044), 1X N-2 supplement (Thermo Fisher Scientific, cat. 17502048), 50 ng/mL human EGF (Thermo Fisher Scientific, cat. PHG0311), and 10 microM Y-27632 dihydrochloride (Tocris Bioscience, cat. 1254). The K12877-001-R-J1-PDC line was cultured in 6I media, which includes all 6C/Colon 1B media plus 10 ng/mL human FGF-10 (PeproTech, cat. 100-26), 1 ng/mL human FGF-2 (PeproTech, cat. 100-18B), 1 µM prostaglandin E2 (Tocris Bioscience, cat. 2296), […] hydrocortisone (Sigma-Aldrich, cat. H4001), and […] bovine insulin (Sigma-Aldrich, cat. I6634). The K86415-001-R-J1-PDC line was cultured in 6D media, which includes all 6C/Colon 1B media components minus the L-WRN conditioned media. The 485176-168-R4-J1-PDC was cultured in PANC media, which includes all 6C/Colon 1B media plus 100 ng/mL human FGF-10 (PeproTech, cat. 100-26), 500 nM SB-431542 (Selleckchem, cat. S1067), and 10 nM gastrin (Tocris Bioscience, cat. 3006). […]
smiles,measurement,setting,value
CCc1c2c(nc3ccc(O)cc13)-c1cc3c(c(=O)n1C2)COC(=O)[C@]3(O)CC + CCn1c(-c2cc(N3CCN(C)CC3)cnc2C(C)OC)c2c3cc(ccc31)-c1csc(n1)CC(NC(=O)C1CC1C)C(=O)N1CCCC(N1)C(=O)OCC(C)(C)C2,pIC50,second compound 0.000949 µM,8.73
same,pIC50,second compound 0.003 µM,8.66
same,pIC50,second compound 0.00949 µM,8.70
same,pIC50,second compound 0.03 µM,> 9.02
same,pIC50,second compound 0.0949 µM,> 9.02
same,pIC50,second compound 0.3 µM,> 9.02
same,"viability, T/C","second compound 0.000949 µM, first compound 0.000949 µM",108%
same,"viability, T/C","second compound 0.000949 µM, first compound 0.003 µM",10.3%
same,"viability, T/C","second compound 0.000949 µM, first compound 0.00949 µM",1.4%
same,"viability, T/C","second compound 0.000949 µM, first compound 0.03 µM",2.14%
same,"viability, T/C","second compound 0.000949 µM, first compound 0.0949 µM",0.7%
same,"viability, T/C","second compound 0.000949 µM, first compound 0.3 µM",0.99%
same,"viability, T/C","second compound 0.003 µM, first compound 0.000949 µM",103%
same,"viability, T/C","second compound 0.003 µM, first compound 0.003 µM",29.6%
same,"viability, T/C","second compound 0.003 µM, first compound 0.00949 µM",1.69%
same,"viability, T/C","second compound 0.003 µM, first compound 0.03 µM",1.32%
same,"viability, T/C","second compound 0.003 µM, first compound 0.0949 µM",1.58%
same,"viability, T/C","second compound 0.003 µM, first compound 0.3 µM",1.28%
same,"viability, T/C","second compound 0.00949 µM, first compound 0.000949 µM",114%
same,"viability, T/C","second compound 0.00949 µM, first compound 0.003 µM",15.1%
same,"viability, T/C","second compound 0.00949 µM, first compound 0.00949 µM",1.72%
same,"viability, T/C","second compound 0.00949 µM, first compound 0.03 µM",1.61%
same,"viability, T/C","second compound 0.00949 µM, first compound 0.0949 µM",1.9%
same,"viability, T/C","second compound 0.00949 µM, first compound 0.3 µM",0.54%
same,"viability, T/C","second compound 0.03 µM, first compound 0.000949 µM",19.6%
same,"viability, T/C","second compound 0.03 µM, first compound 0.003 µM",2.7%
same,"viability, T/C","second compound 0.03 µM, first compound 0.00949 µM",1.2%
same,"viability, T/C","second compound 0.03 µM, first compound 0.03 µM",1.06%
same,"viability, T/C","second compound 0.03 µM, first compound 0.0949 µM",1.1%
same,"viability, T/C","second compound 0.03 µM, first compound 0.3 µM",0.6%
same,"viability, T/C","second compound 0.0949 µM, first compound 0.000949 µM",4.5%
same,"viability, T/C","second compound 0.0949 µM, first compound 0.003 µM",1.29%
same,"viability, T/C","second compound 0.0949 µM, first compound 0.00949 µM",1.45%
same,"viability, T/C","second compound 0.0949 µM, first compound 0.03 µM",0.94%
same,"viability, T/C","second compound 0.0949 µM, first compound 0.0949 µM",1.04%
same,"viability, T/C","second compound 0.0949 µM, first compound 0.3 µM",0.39%
same,"viability, T/C","second compound 0.3 µM, first compound 0.000949 µM",2.56%
same,"viability, T/C","second compound 0.3 µM, first compound 0.003 µM",1.55%
same,"viability, T/C","second compound 0.3 µM, first compound 0.00949 µM",0.57%
same,"viability, T/C","second compound 0.3 µM, first compound 0.03 µM",0.84%
same,"viability, T/C","second compound 0.3 µM, first compound 0.0949 µM",1.38%
same,"viability, T/C","second compound 0.3 µM, first compound 0.3 µM",0.4%
